≈ marks a conversion by molar mass, not a printed value. Entries after “also recorded” stand apart in the source; their conditions may differ.
Columns and labels:
[1] = Single rising dose plasma PK, OZ439 capsule, fasted healthy subjects; assay type: in vivo, human
[2] = Single rising dose plasma PK, OZ439 oral dispersion, fasted healthy subjects; assay type: in vivo, human; conditions: for Tmax / AUC(0-inf) / AUC(0-t) / Cmax: human, plasma, po
[3] = Food effect on plasma PK, 800 mg OZ439 oral dispersion, fed vs fasted; assay type: in vivo; conditions: human; for AUC(0-t): single dose 800 mg OZ439 oral dispersion, geometric mean (CV%)
[4] = Multiple rising dose plasma PK, OZ439 oral dispersion once daily for 3 days; assay type: in vivo, human; conditions: for Rac / AUC(0-t) / Cmax: geometric mean (CV%); for AUC(0-t) / Cmax / Tmax: po; for AUC(0-t): AUC(0,24 h)
[5] = Urinary excretion of OZ439 and metabolites; assay type: in vivo, human; conditions: single rising dose, 0-48 h urine, data not shown
[6] = tested on: P. falciparum laboratory strain NF54; experiment: Ex vivo bioactivity assay of serum samples; assay type: cell-based; conditions: Plasmodium falciparum
[7] = tested on: CYP3A4; experiment: CYP3A4 induction assay; assay type: in vivo, human; conditions: up to 3 days dosing
[8] = Safety assessment in healthy subjects; assay type: in vivo, human
[9] = Plasma pharmacokinetics of OZ439, summary over single and multiple dose parts; assay type: in vivo, human
[10] = dogs, preclinical; cited from earlier work
[11] = tested on: Plasmodium berghei; conditions: single oral dose of 20 mg kg^−1; already known; cited from earlier work
[12] = 14 day toxicology or CNS safety pharmacology studies, preclinical; cited from earlier work
[13] = both, human, plasma, oral, 50 mg
[14] = both, human, plasma, oral, 100 mg
[15] = both, human, plasma, oral, 200 mg
[16] = human, plasma, 200 mg, 200 mg once a day for 3 days, oral dispersion, day 1
[17] = human, plasma, 200 mg, 200 mg once a day for 3 days, oral dispersion, day 3
[18] = human, plasma, 400 mg, 400 mg once a day for 3 days, oral dispersion, day 1
[19] = human, plasma, 400 mg, 400 mg once a day for 3 days, oral dispersion, day 3
[20] = human, plasma, 800 mg, 800 mg once a day for 3 days, oral dispersion, day 1
[21] = human, plasma, 800 mg, 800 mg once a day for 3 days, oral dispersion, day 3
[22] = 800 mg oral dispersion, fasted regimen, possibly treatment related
[23] = single dose 1600 mg oral dispersion, related to study drug

With `c1cc([C@H]2CC[C@]3(CC2)OO[C@]2(O3)C3CC4CC(C3)CC2C4)ccc1OCCN1CCOCC1` [OZ439] as the compound, how does the AUC(0-t) [1, 13] read?
Its AUC(0-t) is 102 ng·h/mL.

What about the Cmax [1, 13] of the same compound?
Its Cmax is 17.4 ng/mL.

And the Tmax [1, 13]?
The Tmax was 3 h.

What about the AUC(0-t) [1, 14] of the same compound?
Its AUC(0-t) is 249 ng·h/mL.

What about the Cmax [1, 14] of the same compound?
The Cmax was 34.2 ng/mL.

What about the Tmax [1, 14] of the same compound?
The Tmax was 5 h.

And the AUC(0-t) [1, 15]?
The AUC(0-t) was 890 ng·h/mL.

And the Cmax [1, 15]?
Its Cmax is 102 ng/mL.

And the Tmax [1, 15]?
Its Tmax is 3.5 h.

What about the Cmax ([1]; both, human, plasma, oral, 400 mg) of the same compound?
The Cmax was 135 ng/mL.

What about the “inter-subject variability of AUC(0,t)” value ([1]; capsule) of the same compound?
The value was 71.5%.

And the “inter-subject variability of Cmax” value ([1]; capsule)?
Its value is 79.5%.

And the “intra-subject variability of AUC(0,t)” value ([1]; capsule)?
Its value is 92.6%.

And the “intra-subject variability of Cmax” value ([1]; capsule)?
Its value is 77.4%.

What about the Tmax ([1]; human, plasma, oral) of the same compound?
Its Tmax is 3 to 5 h.

What about the AUC(0-t) ([1]; human, plasma, oral, 400 mg) of the same compound?
Its AUC(0-t) is 1130 ng·h/mL.

And the Tmax ([1]; human, plasma, oral, 400 mg)?
The Tmax was 3 h.

And the AUC(0-inf) ([1]; human, plasma, oral, 800 mg)?
The AUC(0-inf) was 4690 ng·h/mL.

What about the AUC(0-t) ([1]; human, plasma, oral, 800 mg) of the same compound?
Its AUC(0-t) is 3010 ng·h/mL.

What about the Cmax ([1]; human, plasma, oral, 800 mg) of the same compound?
The Cmax was 315 ng/mL.

And the Tmax ([1]; human, plasma, oral, 800 mg)?
The Tmax was 3 h.

And the concentration at 24 h ([1]; human, plasma, oral, 800 mg)?
The concentration at 24 h was greater than 20 ng/mL.

And the AUC(0-inf) ([1]; human, plasma, oral, 1200 mg)?
The AUC(0-inf) was 9130 ng·h/mL.

And the AUC(0-t) ([1]; human, plasma, oral, 1200 mg)?
Its AUC(0-t) is 6530 ng·h/mL.

What about the Cmax ([1]; human, plasma, oral, 1200 mg) of the same compound?
The Cmax was 701 ng/mL.

And the Tmax ([1]; human, plasma, oral, 1200 mg)?
Its Tmax is 3 h.

And the “time mean plasma concentrations were above 10 ng ml^−1” value ([2]; 400 mg oral dispersion, fasted)?
Its value is 36 h.

What about the “time mean plasma concentrations were above 10 ng ml^−1” value ([2]; 800 mg oral dispersion, fasted) of the same compound?
Its value is 60 h.

What about the “AUC(0,t), oral dispersion compared with capsule” value ([2]; 800 mg, fasted) of the same compound?
Its value is 3.2 fold.

And the “Cmax, oral dispersion compared with capsule” value ([2]; 800 mg, fasted)?
The value was 2.9 fold.

And the “time mean plasma concentrations were above 10 ng ml^−1” value ([2]; 1600 mg oral dispersion, fasted)?
Its value is 96 h.

And the Tmax [2]?
Its Tmax is 3 to 5 h.

And the AUC(0-inf) ([2]; 400 mg)?
The AUC(0-inf) was 5540 ng·h/mL.

And the AUC(0-t) ([2]; 400 mg)?
The AUC(0-t) was 5430 ng·h/mL.

What about the Cmax ([2]; 400 mg) of the same compound?
The Cmax was 566 ng/mL.

And the Tmax ([2]; 400 mg)?
Its Tmax is 3 h.

What about the AUC(0-inf) ([2]; 800 mg) of the same compound?
Its AUC(0-inf) is 9790 ng·h/mL.

And the AUC(0-t) ([2]; 800 mg)?
Its AUC(0-t) is 9630 ng·h/mL.

And the Cmax ([2]; 800 mg)?
Its Cmax is 917 ng/mL.

And the Tmax ([2]; 800 mg)?
Its Tmax is 3 h.

What about the AUC(0-t) ([2]; 1600 mg) of the same compound?
Its AUC(0-t) is 17500 ng·h/mL.

And the Cmax ([2]; 1600 mg)?
Its Cmax is 1340 ng/mL.

And the Tmax ([2]; 1600 mg)?
Its Tmax is 5 h.

What about the “inter-subject variability of AUC(0,∞)” value ([2]; oral dispersion) of the same compound?
Its value is 57.2%.

What about the “inter-subject variability of Cmax” value ([2]; oral dispersion) of the same compound?
Its value is 41.8%.

And the “intra-subject variability of AUC(0,∞)” value ([2]; oral dispersion)?
Its value is 23.2%.

What about the “intra-subject variability of Cmax” value ([2]; oral dispersion) of the same compound?
Its value is 14.0%.

And the concentration at 96 h [3]?
The concentration at 96 h was greater than 10 ng/mL.

What about the AUC(0-t) ([3]; fasted) of the same compound?
The AUC(0-t) was 7590 ng·h/mL.

And the AUC(0-t) ([3]; fed)?
The AUC(0-t) was 23100 ng·h/mL.

What about the Rac ([4]; 400 mg once a day for 3 days, oral dispersion, day 3) of the same compound?
The Rac was 1.76 (29.9).

What about the Rac ([4]; 800 mg once a day for 3 days, oral dispersion, day 3) of the same compound?
The Rac was 1.43 (26.0).

And the attainment of steady-state ([4]; day 3 of dosing)?
Its attainment of steady-state is “steady-state was not achieved; also recorded: had not been attained”.

And the concentration at 96 h ([4]; human, plasma, oral, 400 mg)?
The concentration at 96 h was roughly 17 ng/mL.

What about the AUC(0-t) [4, 16] of the same compound?
The AUC(0-t) was 2640 ng·h/mL.

What about the AUC(0-t) [4, 17] of the same compound?
The AUC(0-t) was 3060 ng·h/mL.

And the Cmax [4, 16]?
Its Cmax is 314 ng/mL.

And the Cmax [4, 17]?
The Cmax was 342 ng/mL.

What about the Tmax ([4]; human, plasma, 200 mg, tmax, 200 mg once a day for 3 days, oral dispersion, day 1, median (range)) of the same compound?
The Tmax was 3.5 h.

What about the Tmax ([4]; human, plasma, 200 mg, tmax, 200 mg once a day for 3 days, oral dispersion, day 3, median (range)) of the same compound?
Its Tmax is 3 h.

And the AUC(0-t) [4, 18]?
Its AUC(0-t) is 4560 ng·h/mL.

What about the AUC(0-t) [4, 19] of the same compound?
Its AUC(0-t) is 7990 ng·h/mL.

What about the Cmax [4, 18] of the same compound?
The Cmax was 505 ng/mL.

What about the Cmax [4, 19] of the same compound?
Its Cmax is 764 ng/mL.

What about the Tmax ([4]; human, plasma, 400 mg, tmax, 400 mg once a day for 3 days, oral dispersion, day 1, median (range)) of the same compound?
The Tmax was 3.5 h.

And the Tmax ([4]; human, plasma, 400 mg, tmax, 400 mg once a day for 3 days, oral dispersion, day 3, median (range))?
Its Tmax is 3 h.

And the AUC(0-t) [4, 20]?
The AUC(0-t) was 9570 ng·h/mL.

What about the AUC(0-t) [4, 21] of the same compound?
The AUC(0-t) was 13700 ng·h/mL.

What about the Cmax [4, 20] of the same compound?
Its Cmax is 1130 ng/mL.

And the Cmax [4, 21]?
Its Cmax is 1390 ng/mL.

What about the Tmax ([4]; human, plasma, 800 mg, median tmax, 200, 400 or 800 mg once daily for 3 days, oral dispersion) of the same compound?
The Tmax was 3 h.

What about the Tmax ([4]; human, plasma, 800 mg, tmax, 800 mg once a day for 3 days, oral dispersion, day 1, median (range)) of the same compound?
Its Tmax is 3 h.

And the Tmax ([4]; human, plasma, 800 mg, tmax, 800 mg once a day for 3 days, oral dispersion, day 3, median (range))?
The Tmax was 3 h.

What about the “inter-subject variability of AUC(0,24 h)” value ([4]; multiple dose, oral dispersion) of the same compound?
Its value is 54.1%.

And the “inter-subject variability of Cmax” value ([4]; multiple dose, oral dispersion)?
The value was 48.9%.

What about the urinary concentrations [5] of the same compound?
Its urinary concentrations is “low or below the limit of quantitation”.

What about the IC50 ([6]; NF54, ex vivo serum samples, average value) of the same compound?
The IC50 was 1.5 ng/mL (≈ 3.19 nM).

What about the IC50 ([6]; NF54, ex vivo serum samples, general range) of the same compound?
The IC50 was 1.3 to 2 ng/mL (≈ 2.77 to 4.26 nM).

And the IC50 ([6]; NF54, pre-dose serum spiked with a known amount of OZ439)?
Its IC50 is 1.7 ng/mL (≈ 3.62 nM).

What about the “induction of CYP3A4” value [7] of the same compound?
Its value is “did not induce”.

And the “subjects experiencing AEs” value ([8]; 200 mg once daily for 3 days)?
Its value is “Three of six”.

And the “subjects experiencing AEs” value ([8]; 400 mg once daily for 3 days)?
The value was 1/6.

And the “subjects experiencing AEs” value ([8]; 800 mg once daily for 3 days)?
Its value is 4/6.

And the headache [8, 22]?
Its headache is 1/12.

And the nausea [8, 22]?
The nausea was 1/12.

And the oropharyngeal pain [8, 22]?
The oropharyngeal pain was 1/12.

And the “subjects experiencing AEs” value ([8]; 800 mg oral dispersion, fed regimen)?
Its value is “Three of 12”.

What about the headache ([8]; 800 mg oral dispersion, fed regimen, possibly treatment related) of the same compound?
The headache was 2/12.

And the safety and tolerability ([8]; 200, 400 and 800 mg once daily for 3 days)?
Its safety and tolerability is “safe and well tolerated”.

And the “effect on QTc interval” value ([8]; healthy subjects)?
Its value is “no significant effect”.

What about the “overall incidence of AEs” value ([8]; other single rising dose groups, out of 6–8) of the same compound?
Its value is 0–2 subjects.

What about the safety and tolerability ([8]; single dose 800 mg oral dispersion, fasted or fed) of the same compound?
Its safety and tolerability is “safe and well tolerated”.

And the “overall incidence of AEs” value ([8]; single dose 1600 mg oral dispersion)?
The value was 5/6.

And the diarrhoea [8, 23]?
The diarrhoea was 3/6.

What about the gastrointestinal hypermotility [8, 23] of the same compound?
Its gastrointestinal hypermotility is 2/6.

And the nausea [8, 23]?
Its nausea is 3/6.

What about the “effect on audiometry/BAEP” value ([8]; single dose and repeat dose parts) of the same compound?
The value was “no clinically significant changes; also recorded: No effect”.

What about the safety and tolerability ([8]; single doses 50 mg up to 1200 mg capsule, oral dispersion up to 1600 mg) of the same compound?
The safety and tolerability was “safe and well tolerated”.

What about the Tmax ([9]; human, plasma, oral) of the same compound?
The Tmax was roughly 3 h.

What about the “time plasma concentrations exceed the estimated minimum effective concentration” value ([9]; well tolerated dose levels) of the same compound?
The value was roughly 96 h.

And the “no observed adverse effect level (NOAEL)” value [10]?
The value was 20 mg/kg/day.

What about the “cure of Plasmodium berghei-infected mice” value [11] of the same compound?
The value was “completely cures”.

And the “central nervous system toxicity” value [12]?
The value was “no preclinical evidence of central nervous system toxicity”.

Source: paper PMC3558805 (British Journal of Clinical Pharmacology, 2012)
